“And” between values parts separate entries of the source, which are not always exact repeats. Identical values can stand only once.
Assays:
[1] = molecular target: T1, TORC1 (Homo sapiens, UniProt P42345+P62942); test: TORC1 inhibition in PC3 cells (Western blot, phospho-rpS6); assay type: cell-based
T1 construct: endogenous in cells; host or cells: PC3 cells
Protocol: (§1) Equal amounts of protein were resolved by SDS-PAGE and transferred to nitrocellulose membrane using the Invitrogen Nu-Page system. […] The following day, blots were washed 3 times in TBST, incubated for 2 hr with secondary antibodies (donkey anti rabbit hrp conjugated), and finally washed an additional 3 times in TBST. ECL Prime (Amersham) was used to detect the proteins of interest and ImageJ was used to quantify blots.

[2] = molecular target: T2, TORC2 (Homo sapiens, UniProt P42345+P62942); test: TORC2 inhibition in PC3 cells (Western blot, phospho Akt (S473)); assay type: cell-based
T2 construct: endogenous in cells; host or cells: PC3 cells
T2 sequence (P62942 2-108 limits assumed, other chains not shown): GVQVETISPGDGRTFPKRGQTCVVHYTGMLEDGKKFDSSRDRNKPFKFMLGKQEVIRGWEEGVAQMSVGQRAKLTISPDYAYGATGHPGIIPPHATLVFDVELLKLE
Protocol: as §1

[3] = Whole blood concentrations in mice after IP dosing (LC-MS/MS); assay type: in vivo, mouse
Protocol: Shown below are whole blood concentrations following administration of the compound of Formula II to mice. The compound of Formula II was administered to mice at 2 mg/kg or 10 mg/kg and the concentration of the compound in whole blood determined. These determinations were made using protein precipitation, liquid chromatography (LC), and mass spectrometry (MS/MS). Ten μl aliquots of whole blood and matrix calibration standards were distributed in a 96-well plate; 10 μl aliquots of blank matrix for matrix blanks and control blanks were included as controls. Ten μl of water was added to each sample followed by vortexing. One hundred sixty […] of internal standard was added to each sample except the matrix blanks; 160 μl 70:30 water:acetonitrile (ACN) was added to matrix blanks. This was followed by a […]. One hundred fifty μl of the resultant supernatant was then transferred to a new 96-well plate and the samples blown to dryness at 35° C. The resultant product was then reconstituted with 90 μl ACN.

Compound: CO[C@H]1C[C@@H]2CC[C@@H](C)[C@@](O)(O2)C(=O)C(=O)N2CCCC[C@H]2C(=O)O[C@H]([C@H](C)C[C@H]2C[C@H]3C[C@@H]2C[C@@H]3O)CC(=O)[C@H](C)/C=C(\C)[C@@H](O)[C@@H](OC)C(=O)[C@H](C)C[C@H](C)/C=C/C=C/C=C/1C [Formula II, C37-[(1R,2S,4R,5S)-5-hyhroxybicyclo[2.2.1]heptane] rapamycin]
- TORC1/TORC2 Selectivity [1]: 50x
- selectivity of mTORC1 vs mTORC2 inhibition compared with the polyketide disclosed in U.S. Pat. No. 9,382,266 (in words) [1]: less selectively
- IC50 ([1]; Western blot): 0.099 nM
- IC50 [2]: 5 nM
- Formula II Concentrations in Mouse Whole Blood, Mean ([3]; 2 mg/kg IP QD × 3 days, Day 1, 1.00 hrs): 383 ng/mL
- Formula II Concentrations in Mouse Whole Blood, individual animals ([3]; 2 mg/kg IP QD × 3 days, Day 1, 1.00 hrs, animals 7, 8, 9): 452 ng/mL and 380 ng/mL and 317 ng/mL
- Formula II Concentrations in Mouse Whole Blood, Mean ([3]; 2 mg/kg IP QD × 3 days, Day 1, 2.00 hrs): 403 ng/mL
- Formula II Concentrations in Mouse Whole Blood, individual animals ([3]; 2 mg/kg IP QD × 3 days, Day 1, 2.00 hrs, animals 7, 8, 9): 415 ng/mL (2×) and 378 ng/mL
- Formula II Concentrations in Mouse Whole Blood, Mean ([3]; 2 mg/kg IP QD × 3 days, Day 1, 6.00 hrs): 464 ng/mL
- Formula II Concentrations in Mouse Whole Blood, individual animals ([3]; 2 mg/kg IP QD × 3 days, Day 1, 6.00 hrs, animals 7, 8, 9): 382 ng/mL and 520 ng/mL and 490 ng/mL
- Formula II Concentrations in Mouse Whole Blood, individual animals ([3]; 2 mg/kg IP QD × 3 days, Day 1, 24.0 hrs, animals 7, 8, 9): 18.4 ng/mL and 14.7 ng/mL
- Formula II Concentrations in Mouse Whole Blood, individual animals ([3]; 2 mg/kg IP QD × 3 days, Day 2, 1.00 hrs, animals 7, 8, 9): 481 ng/mL and 208 ng/mL and 524 ng/mL
- Formula II Concentrations in Mouse Whole Blood, individual animals ([3]; 2 mg/kg IP QD × 3 days, Day 2, 2.00 hrs, animals 7, 8, 9): 501 ng/mL and 233 ng/mL and 570 ng/mL
- Formula II Concentrations in Mouse Whole Blood, individual animals ([3]; 2 mg/kg IP QD × 3 days, Day 2, 6.00 hrs, animals 7, 8, 9): 632 ng/mL and 552 ng/mL
- Formula II Concentrations in Mouse Whole Blood, individual animals ([3]; 2 mg/kg IP QD × 3 days, Day 2, 24.0 hrs, animals 7, 8, 9): 15.3 ng/mL and 80.6 ng/mL and 35.2 ng/mL
- Formula II Concentrations in Mouse Whole Blood, Mean ([3]; 2 mg/kg IP QD × 3 days, Day 3, 1.00 hrs): 651 ng/mL
- Formula II Concentrations in Mouse Whole Blood, individual animals ([3]; 2 mg/kg IP QD × 3 days, Day 3, 1.00 hrs, animals 7, 8, 9): 726 ng/mL and 600 ng/mL
- Formula II Concentrations in Mouse Whole Blood, Mean ([3]; 2 mg/kg IP QD × 3 days, Day 3, 2.00 hrs): 501 ng/mL
- Formula II Concentrations in Mouse Whole Blood, individual animals ([3]; 2 mg/kg IP QD × 3 days, Day 3, 2.00 hrs, animals 7, 8, 9): 478 ng/mL and 489 ng/mL and 535 ng/mL
- Formula II Concentrations in Mouse Whole Blood, Mean ([3]; 2 mg/kg IP QD × 3 days, Day 3, 6.00 hrs): 588 ng/mL
- Formula II Concentrations in Mouse Whole Blood, individual animals ([3]; 2 mg/kg IP QD × 3 days, Day 3, 6.00 hrs, animals 7, 8, 9): 416 ng/mL and 745 ng/mL and 604 ng/mL
- Formula II Concentrations in Mouse Whole Blood, Mean ([3]; 2 mg/kg IP QD × 3 days, Day 3, 24.0 hrs): 41.9 ng/mL
- Formula II Concentrations in Mouse Whole Blood, individual animals ([3]; 2 mg/kg IP QD × 3 days, Day 3, 24.0 hrs, animals 7, 8, 9): 17.6 ng/mL and 59.6 ng/mL and 48.6 ng/mL
- concentrations in whole blood over time (in words) ([3]; 2 mg/kg or 10 mg/kg IP QD for three days): sufficient concentrations in whole blood
- Formula II Concentrations in Mouse Whole Blood, Mean ([3]; 10 mg/kg IP QD × 3 days, Day 1, 1.00 hrs): 657 ng/mL
- Formula II Concentrations in Mouse Whole Blood, individual animals ([3]; 10 mg/kg IP QD × 3 days, Day 1, 1.00 hrs, animals 10, 11, 12): 560 ng/mL and 641 ng/mL and 769 ng/mL
- Formula II Concentrations in Mouse Whole Blood, Mean ([3]; 10 mg/kg IP QD × 3 days, Day 1, 2.00 hrs): 722 ng/mL
- Formula II Concentrations in Mouse Whole Blood, individual animals ([3]; 10 mg/kg IP QD × 3 days, Day 1, 2.00 hrs, animals 10, 11, 12): 793 ng/mL and 869 ng/mL and 503 ng/mL
- Formula II Concentrations in Mouse Whole Blood, Mean ([3]; 10 mg/kg IP QD × 3 days, Day 1, 6.00 hrs): 1165 ng/mL
- Formula II Concentrations in Mouse Whole Blood, individual animals ([3]; 10 mg/kg IP QD × 3 days, Day 1, 6.00 hrs, animals 10, 11, 12): 1000 ng/mL and 1950 ng/mL and 544 ng/mL
- Formula II Concentrations in Mouse Whole Blood, Mean ([3]; 10 mg/kg IP QD × 3 days, Day 1, 24.0 hrs): 204 ng/mL
- Formula II Concentrations in Mouse Whole Blood, individual animals ([3]; 10 mg/kg IP QD × 3 days, Day 1, 24.0 hrs, animals 10, 11, 12): 222 ng/mL and 181 ng/mL and 210 ng/mL
- Formula II Concentrations in Mouse Whole Blood, Mean ([3]; 10 mg/kg IP QD × 3 days, Day 2, 1.00 hrs): 2309 ng/mL
- Formula II Concentrations in Mouse Whole Blood, individual animals ([3]; 10 mg/kg IP QD × 3 days, Day 2, 1.00 hrs, animals 10, 11, 12): 3410 ng/mL and 2970 ng/mL and 546 ng/mL
- Formula II Concentrations in Mouse Whole Blood, Mean ([3]; 10 mg/kg IP QD × 3 days, Day 2, 2.00 hrs): 3323 ng/mL
- Formula II Concentrations in Mouse Whole Blood, individual animals ([3]; 10 mg/kg IP QD × 3 days, Day 2, 2.00 hrs, animals 10, 11, 12): 3670 ng/mL and 3930 ng/mL and 2370 ng/mL
- Formula II Concentrations in Mouse Whole Blood, Mean ([3]; 10 mg/kg IP QD × 3 days, Day 2, 6.00 hrs): 2256 ng/mL
- Formula II Concentrations in Mouse Whole Blood, individual animals ([3]; 10 mg/kg IP QD × 3 days, Day 2, 6.00 hrs, animals 10, 11, 12): 2770 ng/mL and 3390 ng/mL and 609 ng/mL
- Formula II Concentrations in Mouse Whole Blood, Mean ([3]; 10 mg/kg IP QD × 3 days, Day 2, 24.0 hrs): 179 ng/mL
- Formula II Concentrations in Mouse Whole Blood, individual animals ([3]; 10 mg/kg IP QD × 3 days, Day 2, 24.0 hrs, animals 10, 11, 12): 123 ng/mL and 336 ng/mL and 78.0 ng/mL
- Formula II Concentrations in Mouse Whole Blood, Mean ([3]; 10 mg/kg IP QD × 3 days, Day 3, 1.00 hrs): 2204 ng/mL

Source: patent US20200131196A1 (Mount Tam Therapeutics, Inc., priority 2017, published 2020)
